These results are taken from patent US8409560B2, “Solid dispersion formulations and methods of use thereof” (Zalicus Pharmaceuticals Ltd., priority 2011, dated 2013).

The nature of data set [1]: Solubility of compound 1 (previously determined). The data set is classed as physicochemical. From the text: (§1) Compound 1 has the following previously determined characteristics: […]
A short description of data set [2]: pKa of compound 1 (previously determined). The data set is classed as physicochemical.
Description: as §1

A short description of data set [3]: Hygroscopicity of compound 1 free base (previously determined). The format is physicochemical. Conditions: at 70% relative humidity (RH). From the text:
Compound 1 has the following previously determined characteristics:
(vii) hygroscopicity (for free base): 0.09% at 70% relative humidity (RH);

Data set [4] is described as follows: Adverse effects at doses of up to 1,600 mg. The format is in vivo. From the text: Yet, compound 1 is also known to have decreased oral bioavailability in the fasted state, as compared to the fed state. Accordingly, the invention provides formulations to increase the oral bioavailability or to reduce patient-to-patient variability in pharmacokinetic behavior of compound 1, compound 2, or a salt thereof. Generally, amorphous forms of a drug are more readily absorbed within the gastric and intestinal system and, thus, have increased bioavailability, as compared to crystalline forms of the drug. These formulations include use of a solid dispersion system to provide a matrix polymer capable of maintaining therapeutically effective amounts of compound 1, compound 2, or a salt thereof, in an amorphous form.

Data set [5] in a line: Caco-2 apparent intestinal permeability. The format is in vitro ADME. As to conditions: for recovery at 60 min, 1 μM: read-out: Percent Recovery. From the text:
(§2) Absorption of particular drugs may be limited by biological factors, such as reduced cellular permeability in the intestine. Many cellular mechanisms can influence permeability, such as reduced passive paracellular and transcellular transport or increased active export by the efflux transporter protein P-glycoprotein. Thus, the use of self-emulsifying carriers may not be beneficial for drugs having limited cellular permeability, where methods to increase the solubilization of a drug may not increase its permeability in the gastrointestinal tract. Experiments were conducted to assess the apparent intestinal permeability of compound 1 using a Caco-2 cell model.
(§3) Briefly, Caco-2 cells were used as an in vitro model for predicting absorption through the intestinal epithelium. Confluent monolayers of Caco-2 cells were grown on collagen-coated, microporous, polycarbonate membranes (12-well Costar Transwell® plates) that are placed between two chambers. The apical side of the monolayer was exposed to the buffer solution in a first chamber, but the basolateral side of the monolayer adhered to microporous membranes fluidically connected to a second chamber. The dosing solution was added to the first chamber for measurements in the apical-to-basolateral direction (A-to-B) and to the second chamber for measurements in the basolateral-to-apical direction (B-to-A). […] The permeability assay buffer was Hanks Balanced Salt Solution containing 10 mM HEPES and 15 mM glucose at a pH of 7.4. The buffer in the receiver chamber also contained 1% bovine serum albumin. The dosing solution concentration was 1 μM of compound 1 in the assay buffer. All donor chambers were first pre-incubated for five minutes with dosing solution to attempt to saturate any non-specific binding sites on the device with test compound. After five minutes, the solution was removed and replaced with fresh dosing solution, and time was recorded as 0. Cell monolayers were dosed on the apical side/first chamber (for A-to-B measurements) or basolateral side/second chamber (for B-to-A measurements) and incubated at 37° C. with 5% CO2 in a humidified incubator. At 30 and 60 minutes, aliquots were taken from the receiver chambers and replaced with fresh assay buffer. Samples were taken from the donor chamber at 0 and 60 minutes. Each experiment was performed in triplicate.
(§4) The apparent permeability (Papp), percent recovery, and efflux ratio were calculated as follows:
(§5) [formula] [formula] where
(§6) [formula] is the slope of the cumulative concentration in the receiver chamber as a function of time; Vr [cm^3] is the volume of the receiver chamber; Vd [cm^3] is the volume of the donor chamber; A [cm^2] is the area of the cell monolayer, which is estimated to be about 1.13 cm^2 for the 12-well Costar Transwell® plates; C0 [μM] is the measured concentration in the donor chamber at t=0 hours; CN [μM] is the nominal concentration of the dosing solution; Cr final [μM] is the cumulative concentration in the receiver chamber at the end of the incubation period; and Cd final [μM] is the cumulative concentration in the donor chamber at the end of the incubation period.
(§7) Thus, absorption of compound 1 in humans is not expected to be permeability limited.
(Passage across Caco-2 layers is used to estimate intestinal permeability.)

A further data set has as its system Caco-2 cells. Kind of data set: Caco-2 apparent intestinal permeability. The format is in vitro ADME. As to conditions: for Papp, replicates R1-R3: 1 μM.
Description: as §2, §3, §4, §5, §6, §7

Data set [6] can be described thus: Modulated differential scanning calorimetry (MDSC), glass transition temperature Tg. The format is physicochemical. As to conditions: compound 1 alone. The procedure:
FIG. 6 is a graph showing modulated differential scanning calorimetry measurements at ambient relative humidity for solid dispersion formulations having 20% (w/w) loading of compound 1. Glass transition temperature Tg is shown for formulations of carboxymethylethyl cellulose (CMEC), hydroxypropylmethyl cellulose acetate succinate M grade (HPMCAS-M), cellulose acetate phthalate (CAP), and polyvinyl acetate phthalate (PVAP).
Various solid dispersion formulations were tested using modulated differential scanning calorimetry (MDSC). MDSC measurements provide glass transition temperature Tg values, which can be used to understand the molecular mobility of a drug within the dispersion. […] Data for Eudragit® L 100 are not shown, but Tg is likely greater than 150° C. due to polymer degradation above this temperature. All recorded Tg values were at least twice as high as compound 1 alone (Tg=41.6° C.). Lower Tg values could indicate potential stability issues over long periods of time or at an increased temperature or pressure. Table 3 provides Tg values for CAP (formulation 1), HPMCAS-M (formulation 2), and PVAP.

≈ marks a conversion by molar mass, not a printed value. Read-outs that look alike come from different tables or passages of the source.

The solubility is the dissolved amount per volume that the medium holds. The term pKa denotes the negative logarithm of the acid dissociation constant. Low readings indicate a stronger acid or weaker base, high ones a weaker acid or stronger base.

With `O=C(CC(c1ccccc1)c1ccccc1)N1CCN(C(c2ccccc2)c2ccccc2)CC1` [Compound 1, 1-(4-benzhydrylpiperazin-1-yl)-3,3-diphenylpropan-1-one], in data set [1], the “solubility in propylene glycol, ethanol, and tetrahydrofuran (in words)” value is on record as “soluble”. Moreover, the solubility in data set [1] (acetone, organic solvent or mixture, read-out: solubility in acetone) is ≤ 50000 µg/mL; in data set [1] (pH 6.5, pH of 6.5 in FaSSIF, read-out: solubility), 1.5 µg/mL (≈ 3.26 µM); in data set [1] (water, pH 1, simulated gastric fluid, pH of 1.0, read-out: solubility in water) it was 55 µg/mL (≈ 119 µM); in data set [1] (water, pH 6.5, aqueous buffer, pH of 6.5, read-out: solubility in water) it was 0.03 µg/mL (≈ 0.0651 µM); in data set [1] (water, pH 6.8, aqueous buffer, pH of 6.8, read-out: solubility in water), 0.2 to 2 µg/mL (≈ 0.434 to 4.34 µM). Further, in data set [1] (water), the “solubility in water (in words)” value was “slightly soluble”. The pKa in data set [2] amounted to 5.4. The same molecule showed a hygroscopicity in data set [3] of 0.09%. Moreover, the adverse effects result in data set [4] is recorded as “no adverse effects”. Moreover, the recovery at 60 min, 1 μM came out at 54% in data set [5] (Caco-2, pH 7.4, Cell-free); 28% in data set [5] (human, Caco-2, pH 7.4, A-to-B); 37% in data set [5] (human, Caco-2, pH 7.4, B-to-A). The Papp A→B at 60 min, 1 μM in data set [5] (human, Caco-2, pH 7.4, A-to-B, read-out: Papp Avg.) is 5.15 ×10⁻⁶ cm/s; in data set [5] (human, Caco-2, pH 7.4, A-to-B, read-out: Papp, replicates R1-R3) it was 4.37 ×10⁻⁶ cm/s. For the same molecule, the Papp B→A at 60 min, 1 μM in data set [5] (human, Caco-2, pH 7.4, B-to-A, read-out: Papp Avg.) was 4.32 ×10⁻⁶ cm/s; in data set [5] (human, Caco-2, pH 7.4, B-to-A, read-out: Papp, replicates R1-R3), 5.04 ×10⁻⁶ cm/s. In addition, the efflux ratio at 60 min, 1 μM in data set [5] (human, Caco-2, pH 7.4, read-out: Efflux Ratio (Papp(B-to-A)/Papp(A-to-B))) came to 0.8. Moreover, the figures for the “Papp, replicates R1-R3” value in the data set with Caco-2 cells (A-to-B) and in the data set on Caco-2 cells (B-to-A) were 4.31 10^−6 cm/s and 3.48 10^−6 cm/s, respectively. Besides, the permeability classification result with Caco-2 cells (Papp(A-to-B) more than 1.0×10^−6 cm/s) is listed as “high permeability coefficient”. Besides, in the data set with Caco-2 cells (efflux ratio of less than 3), the efflux significance result is “not considered significant”. In data set [6], the Tg was found to be 41.6 °C.
